Laboratory results published in patent US12509445B2, “Herbicidally active 4-cyclopropyl-6-[4-(trifluormethyl)pyrazol-1-yl)]pyrimidines” (Bayer Aktiengesellschaft, priority 2019, dated 2025).

Tests used:
Assay type in all cases: in vivo
[1] = test system: Alopecurus myosuroides (ALOMY); test: Post-emergence herbicidal action
Method: (§1) Seeds of monocotyledonous and dicotyledonous weeds and crop plants are placed in sandy loam in plastic or organic plant pots, covered with soil and cultivated in a greenhouse under controlled growth conditions. 2 to 3 weeks after sowing, the test plants are treated at the one-leaf stage. The compounds of the invention, formulated in the form of wettable powders (WP) or as emulsion concentrates (EC), are then sprayed onto the green parts of the plants as aqueous suspension or emulsion with addition of 0.5% additive at a water application rate of 600 l/ha (converted). After the test plants have been kept in the greenhouse under optimum growth conditions for about 3 weeks, the activity of the preparations is rated visually in comparison to untreated controls. For example, 100% activity=the plants have died, 0% activity=like control plants.
(§2) The abbreviations used here have the following meanings: • ABUTH Abutilon theophrasti • AMARE Amaranlhus retroflexus • CYPES Cyperus serotinus • ECHCGEchinocloa crus galli • LOLRI Lolium rigidum Gaudin • PHBPU Pharbitis purpurcum • SETVI Setaria viridis • VERPE Veronica persica • ALOMY Alopccurus myosuroides • AVEFA Avena fatua • DIGSA Digitaria sanguinalis • LOLMU Lolium multiflorum • MATIN Matricaria inodora • POLCO Polygonum convolvulus • STEME Stellaria media • VIOTR Viola tricolor
(§3) The compounds according to the invention were tested by the post-emergence and pre-emergence methods under the conditions described above for comparative purposes with the structurally closest compounds known from WO 2005/089551 A1 (D1).

[2] = test system: Echinochloa crus-galli (ECHCG); test: Post-emergence herbicidal action
Method: as §1, §2, §3

[3] = test system: Matricaria inodora (MATIN); test: Post-emergence herbicidal action; conditions: 80 g of a.i./ha, comparative test
Method: as §1, §2, §3

Setaria viridis (SETVI) [4] = test: Post-emergence herbicidal action
Method: as §1, §2, §3

[5] = test system: Amaranthus retroflexus (AMARE); test: Post-emergence herbicidal action; conditions: 320 g/ha, visual rating after about 3 weeks vs untreated controls, 100% = plants have died
Method: as §1, §2

[6] = test system: Lolium rigidum Gaudin (LOLRI); test: Post-emergence herbicidal action; conditions: 320 g/ha, visual rating after about 3 weeks vs untreated controls, 100% = plants have died
Method: as §1, §2

[7] = test system: Pharbitis purpurea (PHBPU); test: Post-emergence herbicidal action; conditions: 320 g/ha, visual rating after about 3 weeks vs untreated controls, 100% = plants have died
Method: as §1, §2

Veronica persica (VERPE) [8] = test: Post-emergence herbicidal action; conditions: 320 g/ha, visual rating after about 3 weeks vs untreated controls, 100% = plants have died
Method: as §1, §2

Viola tricolor (VIOTR) [9] = test: Post-emergence herbicidal action; conditions: 320 g/ha, visual rating after about 3 weeks vs untreated controls, 100% = plants have died
Method: as §1, §2

[10] = test system: Alopecurus myosuroides (ALOMY); test: Pre-emergence herbicidal action
Text: as §2
(§4) Seeds of monocotyledonous and dicotyledonous weed plants and crop plants are placed in plastic or organic plant pots and covered with soil. The compounds of the invention, formulated in the form of wettable powders (WP) or as emulsion concentrates (EC), are then applied onto the surface of the covering soil as aqueous suspension or emulsion with addition of 0.5% additive at a water application rate of 600 l/ha (converted). After the treatment, the pots are placed in a greenhouse and kept under good growth conditions for the trial plants. After about 3 weeks, the effect of the preparations is scored visually in comparison with untreated controls as percentages. For example, 100% activity=the plants have died, 0% activity=like control plants.
as §3

[11] = test system: Echinochloa crus-galli (ECHCG); test: Pre-emergence herbicidal action
Text: as §2, §4, §3

[12] = test system: Matricaria inodora (MATIN); test: Pre-emergence herbicidal action
Text: as §2, §4, §3

[13] = test system: Polygonum convolvulus (POLCO); test: Pre-emergence herbicidal action
Text: as §2, §4, §3

Setaria viridis (SETVI) [14] = test: Pre-emergence herbicidal action
Text: as §2, §4, §3

Stellaria media (STEME) = test: Pre-emergence herbicidal action
Text: as §2, §4, §3

Viola tricolor (VIOTR) [15] = test: Pre-emergence herbicidal action
Text: as §2, §4, §3

[16] = test system: Amaranthus retroflexus (AMARE); test: Pre-emergence herbicidal action; conditions: 320 g/ha, visual scoring after about 3 weeks vs untreated controls, 100% = plants have died
Text: as §2, §4

Avena fatua (AVEFA) = test: Pre-emergence herbicidal action; conditions: 320 g/ha, visual scoring after about 3 weeks vs untreated controls, 100% = plants have died
Text: as §2, §4

[17] = test system: Digitaria sanguinalis (DIGSA); test: Pre-emergence herbicidal action; conditions: 320 g/ha, visual scoring after about 3 weeks vs untreated controls, 100% = plants have died
Text: as §2, §4

[18] = test system: Lolium rigidum Gaudin (LOLRI); test: Pre-emergence herbicidal action; conditions: 320 g/ha, visual scoring after about 3 weeks vs untreated controls, 100% = plants have died
Text: as §2, §4

[19] = test system: Pharbitis purpurea (PHBPU); test: Pre-emergence herbicidal action; conditions: 320 g/ha, visual scoring after about 3 weeks vs untreated controls, 100% = plants have died
Text: as §2, §4

Veronica persica (VERPE) [20] = test: Pre-emergence herbicidal action; conditions: 320 g/ha, visual scoring after about 3 weeks vs untreated controls, 100% = plants have died
Text: as §2, §4

[21] = test system: harmful plants such as Alopecurus myosuroides, Amaranthus retroflexus, Avena fatua, Echinochloa crus-galli, Matricaria inodora, Pharbitis purpurea, Polygonum …; test: Pre-emergence herbicidal action, summary in text; conditions: pre-emergence treatment
Text: as §4
At the same time, some compounds according to the invention leave graminaceous crops such as barley, wheat, rye, millet/sorghum, maize, rice or sugarcane virtually undamaged when applied by the pre-emergence method, even at high active compound dosages. Some compounds are additionally also benign to dicotyledonous crops such as soya, cotton, oilseed rape or sugarbeet.

[22] = 80 g of a.i./ha, comparative test
[23] = 320 g/ha, visual rating after about 3 weeks vs untreated controls, 100% = plants have died
[24] = 320 g/ha, visual scoring after about 3 weeks vs untreated controls, 100% = plants have died

## FC(F)Oc1cc(Oc2nc(C3CC3)cc(-n3cc(C(F)(F)F)cn3)n2)ccn1 [Example I-003]
[1]; [22]
  Herbicidal action against ALOMY: 60%
[1]; [23]
  Post-emergence action ALOMY: 90%
[2]; [22]
  Herbicidal action against ECHCG: 80%
[2]; [23]
  Post-emergence action ECHCG: 90%
[3]
  Herbicidal action against MATIN: 60%
Setaria viridis (SETVI) [4]; [22]
  Herbicidal action against SETVI: 60%
Setaria viridis (SETVI) [4]; [23]
  Post-emergence action SETVI: 80%
[5]
  Post-emergence action AMARE: 90%
[6]
  Post-emergence action LOLRI: 90%
[7]
  Post-emergence action PHBPU: 80%
Veronica persica (VERPE) [8]
  Post-emergence action VERPE: 90%
Viola tricolor (VIOTR) [9]
  Post-emergence action VIOTR: 90%
[10]; [22]
  Herbicidal action against ALOMY: 60%
[10]; [24]
  Pre-emergence action ALOMY: 100%
[11]; [22]
  Herbicidal action against ECHCG: 30%
[11]; [24]
  Pre-emergence action ECHCG: 90%
[12]; [22]
  Herbicidal action against MATIN: 90%
[12]; [24]
  Pre-emergence action MATIN: 90%
[13]; [22]
  Herbicidal action against POLCO: 20%
[13]; [24]
  Pre-emergence action POLCO: 90%
Setaria viridis (SETVI) [14]; [22]
  Herbicidal action against SETVI: 100%
Setaria viridis (SETVI) [14]; [24]
  Pre-emergence action SETVI: 100%
Stellaria media (STEME); [22]
  Herbicidal action against STEME: 90%
Stellaria media (STEME); [24]
  Pre-emergence action STEME: 100%
Viola tricolor (VIOTR) [15]; [22]
  Herbicidal action against VIOTR: 100%
Viola tricolor (VIOTR) [15]; [24]
  Pre-emergence action VIOTR: 100%
[16]
  Pre-emergence action AMARE: 100%
Avena fatua (AVEFA)
  Pre-emergence action AVEFA: 90%
[17]
  Pre-emergence action DIGSA: 100%
[18]
  Pre-emergence action LOLRI: 100%
[19]
  Pre-emergence action PHBPU: 100%
Veronica persica (VERPE) [20]
  Pre-emergence action VERPE: 100%
[21]
  herbicidal action against harmful plants (in words): good herbicidal action
